# Structures can show the parent of a compound that is named as a salt.
# Target: CCR8 (Homo sapiens, UniProt P51685)
# Assay: Tango assay (Tango-CCR8-Gal4-CHO-K1 cells, CCL1-stimulated, ONE-Glo luminescence)
# Settings: Tango Assay IC50, Inhibition of CCR8 Tango cell in vitro
# Chain of CCR8 (P51685 whole entry, the tested form may be a part): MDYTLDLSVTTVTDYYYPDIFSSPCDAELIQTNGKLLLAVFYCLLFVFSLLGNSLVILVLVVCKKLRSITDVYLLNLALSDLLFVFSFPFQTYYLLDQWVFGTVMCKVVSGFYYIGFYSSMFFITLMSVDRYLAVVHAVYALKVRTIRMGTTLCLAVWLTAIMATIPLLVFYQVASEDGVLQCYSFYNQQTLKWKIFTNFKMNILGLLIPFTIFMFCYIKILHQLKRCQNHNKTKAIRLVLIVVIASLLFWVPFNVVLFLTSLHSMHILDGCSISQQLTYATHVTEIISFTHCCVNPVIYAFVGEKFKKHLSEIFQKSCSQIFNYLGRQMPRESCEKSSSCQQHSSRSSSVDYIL
row,Structure (SMILES),IC50
1,"Cc1ccccc1C(=O)Nc1ccc(S(=O)(=O)NC(C)C2CCCN(C(=O)CN)C2)c2ccccc12 (single isomer, unassigned) [Compound 156B, N-(4-(N-(1-(1-(2-aminoacetyl)piperidin-3-yl)ethyl)sulfamoyl)naph-thalen-1-yl)-2-methylbenzamide]",> 10 µM
2,"Cc1ccccc1C(=O)Nc1ccc(S(=O)(=O)NC(=O)c2ccccc2N2CCCCC2)c2ccccc12 [Compound 12, 2-methyl-N-(4-(N-(2-(piperidin-1-yl)benzoyl)sulfamoyl)naphthalen-1-yl)benzamide]",> 10 µM
3,"Cc1ccccc1C(=O)Nc1ccc(S(=O)(=O)NC(C)C2CCCCN2)c2ccccc12 (stereo not drawn) [Compound 69A, 2-methyl-N-(4-(N-(1-(piperidin-2-yl)ethyl)sulfamoyl)naph-thalen-1-yl)benzamide]",> 10 µM
4,"Cc1ccccc1C(=O)Nc1ccc(S(=O)(=O)NC(C)C2CCCN(C(=O)CN(C)C)C2)c2ccccc12 (stereo not drawn) [Compound 159, N-(4-(N-(1-(1-(2-(dimethylamino)acetyl)piperidin-3-yl)ethyl)sulfamoyl)naph-thalen-1-yl)-2-methylbenzamide]",> 10 µM
5,"Cc1ccccc1C(=O)Nc1ccc(S(=O)(=O)N(C)c2ccc3c(c2)N(C(=O)CN(C)C)CC3)c2ccccc12 [Compound 38, N-(4-(N-(1-(2-(dimethylamino)acetyl)indolin-6-yl)-N-methylsulfamoyl)naph-thalen-1-yl)-2-methylbenzamide]",1.68 µM
6,"Cc1ccccc1C(=O)Nc1ccc(S(=O)(=O)Nc2ccc3c(c2)N(CCN(C)C)C(=O)CO3)c2ccccc12 [Compound 20, N-(4-(N-(4-(2-(dimethylamino)ethyl)-3-oxo-3,4-dihydro-2H-benzo[b][1,4]oxazin-6-yl)sulfamoyl)naphthalen-1-yl)-2-methylbenzamide]",> 10 µM
7,"Cc1c(C(=O)O)cccc1S(=O)(=O)NC(C)C1CC2CCC1CC2 (stereo not drawn) [Compound 142, 3-(N-(1-(bicyclo[2.2.2]octan-2-yl)ethyl)sulfamoyl)-2-methylbenzoic acid]",> 10 µM

# Next, values leading:
row,IC50,Structure (SMILES)
1,0.005 µM,"Cc1cc(S(=O)(=O)N[C@H](C)C2CCNCC2)ccc1NC(=O)c1cccc2c1CCC2 [Compound 310, (R)-N-(2-methyl-4-(N-(1-(piperidin-4-yl)ethyl)sulfamoyl)phenyl)-2,3-dihydro-1H-indene-4-carboxamide hydrochloride]"
2,0.002 µM,"Cc1ccccc1C(=O)Nc1cc(F)c(S(=O)(=O)N[C@H](C)C2CCN(C)CC2)cc1Cl [Compound 263, (R)-N-(2-chloro-5-fluoro-4-(N-(1-(1-methylpiperidin-4-yl)ethyl)sulfamoyl)phenyl)-2-methylbenzamide]"
3,> 100 µM,"Cc1ccccc1C(=O)Nc1c(C)cc(S(=O)(=O)N[C@H](C)C2CCNCC2)cc1F [Compound 302, (R)-N-(2-fluoro-6-methyl-4-(N-(1-(piperidin-4-yl)eth-yl)sulfamoyl)phen-yl)-2-methylbenzamide hydrochloride]"
4,0.002 µM,"Cc1ccccc1C(=O)Nc1cc(C)c(S(=O)(=O)N[C@H](C)C2CCN(C)CC2)cc1Cl [Compound 267A, (R)-N-(2-chloro-5-methyl-4-(N-(1-(1-methylpiperidin-4-yl)ethyl)sulfamoyl)phenyl)-2-methylbenzamide hydrochloride]"
5,0.115 µM,"Cc1ccccc1C(=O)Nc1ccc(S(=O)(=O)N[C@H](C)C2CCNCC2)cc1C(C)C [Compound 197A, (R)-N-(2-isopropyl-4-(N-(1-(piperidin-4-yl)ethyl)sulfamoyl)phenyl)-2-methylbenzamide hydrochloride]"

# — patent US12552753B2, “Methods and compositions for targeting Tregs using CCR8 inhibitors” (Nanjing Immunophage Biomedical Co., Ltd., priority 2020, dated 2026)
